Common to all, as to type: biochemical, human/mammalian
What all share (conditions): compound at 10 μM, read-out: % of activity respect of the control

The target of test [1] is T1, SGK1 (Homo sapiens, UniProt O00141).
T1 sequence (O00141 1-431): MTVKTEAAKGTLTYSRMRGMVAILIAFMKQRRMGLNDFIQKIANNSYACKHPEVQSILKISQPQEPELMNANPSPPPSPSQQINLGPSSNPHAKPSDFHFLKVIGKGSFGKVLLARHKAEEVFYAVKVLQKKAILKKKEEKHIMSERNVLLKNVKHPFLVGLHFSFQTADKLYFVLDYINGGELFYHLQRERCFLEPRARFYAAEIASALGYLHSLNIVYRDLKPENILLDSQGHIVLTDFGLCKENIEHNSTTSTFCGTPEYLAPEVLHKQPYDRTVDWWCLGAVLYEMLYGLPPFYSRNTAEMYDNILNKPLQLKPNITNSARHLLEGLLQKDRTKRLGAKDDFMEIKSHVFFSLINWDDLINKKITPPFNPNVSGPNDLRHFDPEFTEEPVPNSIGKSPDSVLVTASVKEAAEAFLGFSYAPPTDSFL
As to the kind of experiment: Kinase panel: SGK1. As for the experimental part:
(§1) The DDU kinase-focused compound set contains lead-like scaffolds that are designed to target protein kinases; they have kinase hinge binding motifs. Four of the 1H-imidazopyrazinones were screened against a human/mammalian kinase panel at the University of Dundee (http://www.kinase-screen.mrc.ac.uk) at a concentration of 10 μM. At the time of testing the panel contained 79 mammalian kinases selected to provide a broad coverage of the mammalian kinome (∼500 kinases in the human genome).[3] None of the compounds were active against any of the kinases at 10 μM.

For test [2], the target named is YES1 (Homo sapiens, UniProt P07947). As to the kind of experiment: Kinase panel: YES1. Here is the method: as §1
The target of test [3] is T2, IKKb (Homo sapiens, UniProt O14920).
T2 sequence (O14920 1-756): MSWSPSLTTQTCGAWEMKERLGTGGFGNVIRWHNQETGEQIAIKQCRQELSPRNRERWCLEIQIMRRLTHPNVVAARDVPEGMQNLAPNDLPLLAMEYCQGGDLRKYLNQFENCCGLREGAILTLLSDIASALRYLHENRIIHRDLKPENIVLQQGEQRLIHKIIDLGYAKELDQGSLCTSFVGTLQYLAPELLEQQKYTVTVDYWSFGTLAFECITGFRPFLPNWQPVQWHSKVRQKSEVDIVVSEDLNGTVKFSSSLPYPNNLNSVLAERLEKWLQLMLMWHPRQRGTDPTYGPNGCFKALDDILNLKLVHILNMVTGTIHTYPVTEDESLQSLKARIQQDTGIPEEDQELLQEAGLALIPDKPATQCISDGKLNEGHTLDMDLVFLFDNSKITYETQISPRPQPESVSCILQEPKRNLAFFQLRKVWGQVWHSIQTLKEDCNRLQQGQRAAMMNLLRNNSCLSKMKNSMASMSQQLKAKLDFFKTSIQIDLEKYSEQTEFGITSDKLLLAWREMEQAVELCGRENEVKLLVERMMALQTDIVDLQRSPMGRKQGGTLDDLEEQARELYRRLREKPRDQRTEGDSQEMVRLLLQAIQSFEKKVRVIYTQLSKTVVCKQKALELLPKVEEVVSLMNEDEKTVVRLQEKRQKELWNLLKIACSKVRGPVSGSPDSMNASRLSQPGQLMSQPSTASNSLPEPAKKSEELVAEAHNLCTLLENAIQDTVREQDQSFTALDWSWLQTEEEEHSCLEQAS
As to the kind of experiment: Kinase panel: IKKb. Here is the method: as §1

Test [4] addresses T3, p38s MAPK (Homo sapiens, UniProt O15264).
T3 sequence (O15264 1-365): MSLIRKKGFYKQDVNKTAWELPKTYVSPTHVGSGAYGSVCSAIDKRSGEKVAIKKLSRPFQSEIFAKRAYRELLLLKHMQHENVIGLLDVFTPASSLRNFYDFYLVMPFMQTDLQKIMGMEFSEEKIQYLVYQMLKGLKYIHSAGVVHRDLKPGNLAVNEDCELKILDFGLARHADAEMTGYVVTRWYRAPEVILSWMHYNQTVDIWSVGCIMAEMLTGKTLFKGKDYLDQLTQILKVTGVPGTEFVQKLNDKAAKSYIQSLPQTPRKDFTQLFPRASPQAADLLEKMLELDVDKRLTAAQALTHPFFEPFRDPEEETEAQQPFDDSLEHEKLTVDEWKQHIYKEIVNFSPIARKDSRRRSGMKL
As to the kind of experiment: Kinase panel: p38s MAPK. Here is the method:
as §1

The target of test [5] is CHK2 (Homo sapiens, UniProt O96017). As to the kind of experiment: Kinase panel: CHK2. As for the experimental part: as §1
For test [6], the target named is MNK1 (Homo sapiens, UniProt Q9BUB5). As to the kind of experiment: Kinase panel: MNK1. Here is the method:
as §1

Test [7] deals with MKK1 (Homo sapiens, UniProt Q02750). Put plainly: Kinase panel: MKK1. Here is the method:
as §1

Test [8] deals with HIPK2 (Homo sapiens, UniProt Q9H2X6). Put plainly: Kinase panel: HIPK2. As for the experimental part: as §1
Test [9] concerns the target ERK2 (Homo sapiens, UniProt P28482). As to the kind of experiment: Kinase panel: ERK2. As for the experimental part:
as §1

Test [10] addresses p38a MAPK (Homo sapiens, UniProt Q16539). Put plainly: Kinase panel: p38a MAPK. Here is the method:
as §1

The target in test [11] is T4, PRAK (Homo sapiens, UniProt Q8IW41).
T4 sequence (Q8IW41 1-473): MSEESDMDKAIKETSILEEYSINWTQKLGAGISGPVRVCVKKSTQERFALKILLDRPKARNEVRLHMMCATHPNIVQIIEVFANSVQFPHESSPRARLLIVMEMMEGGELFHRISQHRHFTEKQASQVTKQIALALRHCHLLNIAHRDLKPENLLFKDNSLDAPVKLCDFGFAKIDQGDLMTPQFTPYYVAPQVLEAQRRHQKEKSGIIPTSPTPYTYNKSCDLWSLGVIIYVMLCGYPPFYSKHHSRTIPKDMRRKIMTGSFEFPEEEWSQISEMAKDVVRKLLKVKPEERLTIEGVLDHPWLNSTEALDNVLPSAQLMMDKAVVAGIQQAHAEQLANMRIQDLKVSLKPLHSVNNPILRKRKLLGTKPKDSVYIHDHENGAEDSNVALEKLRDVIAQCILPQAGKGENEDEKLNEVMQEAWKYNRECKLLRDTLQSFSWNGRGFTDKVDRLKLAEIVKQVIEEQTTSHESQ
As to the kind of experiment: Kinase panel: PRAK. Here is the method:
as §1

For test [12], the target named is SRPK1 (Homo sapiens, UniProt Q96SB4). As to the kind of experiment: Kinase panel: SRPK1. As for the experimental part:
as §1

Test [13] addresses PIM3 (Homo sapiens, UniProt Q86V86). Put plainly: Kinase panel: PIM3. Here is the method: as §1

These results are taken from paper PMC4648050, “Discovery of Inhibitors of Trypanosoma brucei by Phenotypic Screening of a Focused Protein Kinase Library” (Chemmedchem, 2015).

Chain of HIPK2 (Q9H2X6 whole entry): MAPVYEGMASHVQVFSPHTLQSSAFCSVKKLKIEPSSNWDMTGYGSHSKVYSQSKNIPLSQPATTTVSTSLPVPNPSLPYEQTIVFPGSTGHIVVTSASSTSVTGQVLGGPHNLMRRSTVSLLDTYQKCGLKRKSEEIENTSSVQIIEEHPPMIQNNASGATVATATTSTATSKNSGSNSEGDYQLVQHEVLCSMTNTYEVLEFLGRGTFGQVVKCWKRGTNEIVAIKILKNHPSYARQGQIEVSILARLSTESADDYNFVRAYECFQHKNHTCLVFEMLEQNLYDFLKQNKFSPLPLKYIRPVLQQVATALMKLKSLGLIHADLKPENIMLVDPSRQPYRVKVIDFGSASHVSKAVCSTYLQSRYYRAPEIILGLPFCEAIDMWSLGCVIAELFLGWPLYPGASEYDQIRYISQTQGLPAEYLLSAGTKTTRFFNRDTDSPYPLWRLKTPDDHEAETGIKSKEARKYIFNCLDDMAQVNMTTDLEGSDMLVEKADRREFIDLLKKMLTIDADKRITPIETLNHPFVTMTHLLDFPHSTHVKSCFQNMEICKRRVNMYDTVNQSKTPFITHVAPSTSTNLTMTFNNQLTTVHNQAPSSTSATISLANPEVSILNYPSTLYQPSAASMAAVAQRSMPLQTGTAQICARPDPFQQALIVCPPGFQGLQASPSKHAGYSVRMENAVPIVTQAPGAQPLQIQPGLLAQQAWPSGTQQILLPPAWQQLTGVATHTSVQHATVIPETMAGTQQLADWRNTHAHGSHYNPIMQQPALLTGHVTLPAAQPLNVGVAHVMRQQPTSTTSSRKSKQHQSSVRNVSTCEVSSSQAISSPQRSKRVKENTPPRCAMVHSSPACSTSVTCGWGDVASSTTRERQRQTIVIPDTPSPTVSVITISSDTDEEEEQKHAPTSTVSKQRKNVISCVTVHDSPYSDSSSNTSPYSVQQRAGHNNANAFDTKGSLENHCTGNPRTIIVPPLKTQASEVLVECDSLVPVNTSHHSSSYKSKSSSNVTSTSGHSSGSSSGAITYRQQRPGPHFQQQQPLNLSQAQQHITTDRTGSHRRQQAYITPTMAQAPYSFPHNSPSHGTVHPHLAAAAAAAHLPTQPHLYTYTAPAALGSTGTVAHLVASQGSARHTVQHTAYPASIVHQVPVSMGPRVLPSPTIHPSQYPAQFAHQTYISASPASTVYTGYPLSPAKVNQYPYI
Chain of SRPK1 (Q96SB4 whole entry): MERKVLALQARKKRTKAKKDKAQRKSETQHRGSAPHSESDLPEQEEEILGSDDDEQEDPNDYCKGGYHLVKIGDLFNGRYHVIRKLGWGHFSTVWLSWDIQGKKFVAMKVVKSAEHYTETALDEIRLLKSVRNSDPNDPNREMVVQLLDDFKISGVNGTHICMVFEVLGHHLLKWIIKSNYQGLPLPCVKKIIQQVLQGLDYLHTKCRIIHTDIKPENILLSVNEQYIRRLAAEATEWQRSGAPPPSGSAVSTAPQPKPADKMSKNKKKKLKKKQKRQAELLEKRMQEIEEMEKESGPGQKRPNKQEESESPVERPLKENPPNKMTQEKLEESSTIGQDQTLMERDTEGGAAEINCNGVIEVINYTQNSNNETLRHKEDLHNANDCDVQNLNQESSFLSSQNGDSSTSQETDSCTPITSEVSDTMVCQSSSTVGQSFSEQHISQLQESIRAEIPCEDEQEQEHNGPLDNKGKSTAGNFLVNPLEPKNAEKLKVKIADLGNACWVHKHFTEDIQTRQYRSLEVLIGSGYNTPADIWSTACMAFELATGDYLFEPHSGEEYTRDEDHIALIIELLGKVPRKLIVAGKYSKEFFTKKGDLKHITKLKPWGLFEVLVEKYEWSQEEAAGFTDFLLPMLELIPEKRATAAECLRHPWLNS
Chain of p38a MAPK (Q16539 whole entry): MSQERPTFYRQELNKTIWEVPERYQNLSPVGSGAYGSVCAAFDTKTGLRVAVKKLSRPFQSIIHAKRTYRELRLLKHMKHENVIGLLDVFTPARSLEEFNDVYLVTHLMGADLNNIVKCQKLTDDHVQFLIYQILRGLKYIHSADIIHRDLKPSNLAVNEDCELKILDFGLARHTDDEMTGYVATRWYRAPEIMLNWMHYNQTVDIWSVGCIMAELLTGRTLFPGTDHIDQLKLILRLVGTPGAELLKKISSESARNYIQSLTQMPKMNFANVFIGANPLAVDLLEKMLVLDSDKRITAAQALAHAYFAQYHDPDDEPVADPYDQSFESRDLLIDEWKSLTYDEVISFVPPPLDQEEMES
Chain of MKK1 (Q02750 whole entry): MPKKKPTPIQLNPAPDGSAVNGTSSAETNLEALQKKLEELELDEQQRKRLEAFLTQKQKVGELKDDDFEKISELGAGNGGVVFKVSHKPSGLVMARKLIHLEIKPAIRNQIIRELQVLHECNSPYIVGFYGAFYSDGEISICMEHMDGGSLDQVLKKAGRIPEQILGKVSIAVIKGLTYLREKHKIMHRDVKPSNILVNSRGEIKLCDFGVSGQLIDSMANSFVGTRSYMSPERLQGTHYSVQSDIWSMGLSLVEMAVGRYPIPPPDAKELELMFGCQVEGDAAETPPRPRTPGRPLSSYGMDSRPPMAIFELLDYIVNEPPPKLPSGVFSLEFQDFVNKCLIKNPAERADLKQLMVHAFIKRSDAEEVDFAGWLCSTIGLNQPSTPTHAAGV
Chain of ERK2 (P28482 whole entry): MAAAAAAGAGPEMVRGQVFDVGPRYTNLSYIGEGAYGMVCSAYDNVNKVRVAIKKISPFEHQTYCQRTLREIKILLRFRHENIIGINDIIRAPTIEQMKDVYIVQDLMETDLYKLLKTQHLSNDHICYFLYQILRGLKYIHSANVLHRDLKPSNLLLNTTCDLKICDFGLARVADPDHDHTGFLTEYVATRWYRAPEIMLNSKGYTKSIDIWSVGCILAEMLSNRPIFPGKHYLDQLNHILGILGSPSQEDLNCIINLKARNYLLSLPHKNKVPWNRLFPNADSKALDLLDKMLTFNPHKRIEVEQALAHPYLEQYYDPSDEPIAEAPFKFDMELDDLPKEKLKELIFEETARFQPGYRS
Chain of YES1 (P07947 whole entry): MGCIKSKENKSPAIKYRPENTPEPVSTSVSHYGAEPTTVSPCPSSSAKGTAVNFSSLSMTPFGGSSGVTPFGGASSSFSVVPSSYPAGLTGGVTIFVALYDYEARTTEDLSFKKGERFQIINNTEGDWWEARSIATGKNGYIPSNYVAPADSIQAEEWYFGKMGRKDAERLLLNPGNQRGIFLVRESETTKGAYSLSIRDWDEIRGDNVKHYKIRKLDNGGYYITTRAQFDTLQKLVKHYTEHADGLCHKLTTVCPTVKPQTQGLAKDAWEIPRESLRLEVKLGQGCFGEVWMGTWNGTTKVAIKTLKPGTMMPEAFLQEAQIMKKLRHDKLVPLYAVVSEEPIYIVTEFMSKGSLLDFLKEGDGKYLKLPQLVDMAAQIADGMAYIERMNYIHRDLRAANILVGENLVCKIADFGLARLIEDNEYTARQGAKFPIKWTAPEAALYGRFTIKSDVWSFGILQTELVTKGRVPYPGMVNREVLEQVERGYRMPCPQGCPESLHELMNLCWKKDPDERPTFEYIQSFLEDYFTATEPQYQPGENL
Chain of CHK2 (O96017 whole entry): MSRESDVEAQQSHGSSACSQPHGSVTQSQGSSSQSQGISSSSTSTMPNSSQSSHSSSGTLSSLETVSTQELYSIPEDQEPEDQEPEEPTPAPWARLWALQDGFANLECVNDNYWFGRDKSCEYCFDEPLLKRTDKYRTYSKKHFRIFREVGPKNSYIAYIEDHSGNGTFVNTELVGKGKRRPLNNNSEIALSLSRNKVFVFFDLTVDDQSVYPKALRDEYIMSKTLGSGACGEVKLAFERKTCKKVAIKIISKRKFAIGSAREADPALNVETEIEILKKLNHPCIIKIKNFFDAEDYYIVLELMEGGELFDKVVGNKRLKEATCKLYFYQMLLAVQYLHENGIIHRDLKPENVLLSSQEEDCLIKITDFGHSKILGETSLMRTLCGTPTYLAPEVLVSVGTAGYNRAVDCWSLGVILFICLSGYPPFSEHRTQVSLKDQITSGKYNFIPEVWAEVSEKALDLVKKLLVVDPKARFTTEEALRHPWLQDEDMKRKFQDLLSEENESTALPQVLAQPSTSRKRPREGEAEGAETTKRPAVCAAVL
Chain of MNK1 (Q9BUB5 whole entry): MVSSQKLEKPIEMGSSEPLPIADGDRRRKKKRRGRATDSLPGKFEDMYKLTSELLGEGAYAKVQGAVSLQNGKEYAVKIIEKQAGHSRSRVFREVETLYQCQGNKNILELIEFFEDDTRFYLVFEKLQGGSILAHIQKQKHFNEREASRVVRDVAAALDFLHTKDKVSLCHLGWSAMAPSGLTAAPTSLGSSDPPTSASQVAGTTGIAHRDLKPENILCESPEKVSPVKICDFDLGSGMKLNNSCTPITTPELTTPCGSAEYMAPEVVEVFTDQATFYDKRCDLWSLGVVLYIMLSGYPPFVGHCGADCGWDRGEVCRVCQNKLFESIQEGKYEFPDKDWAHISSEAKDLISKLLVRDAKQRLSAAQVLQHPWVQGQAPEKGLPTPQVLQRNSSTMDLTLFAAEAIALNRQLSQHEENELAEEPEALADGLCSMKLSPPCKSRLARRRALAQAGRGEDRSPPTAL

For the compound `CC(c1ccccc1)n1c(=O)[nH]c2ncc(-c3ccc(F)cc3)nc21` (stereo not shown) [Compound 1], the remaining activity at 10 µM in test [1] worked out at 104%; in test [2], 94%; in test [3], 103%; in test [4] it was 108%; in test [5], 97%; in [6] it was 83%. The remaining activity at 10 µM in test [7] stood at 106%; in [8], 101%; in test [9] it was 65%; in test [10] it was 88%; in [11] it was 103%; in [12], 80%. Also, the remaining activity at 10 µM in [13] came to 83%.
Take `O=c1[nH]c2ncc(-c3ccc(F)cc3)nc2n1CC1CC1` [Compound 10]: the remaining activity at 10 µM in test [1] worked out at 110%; in [2], 96%; in [3] it was 105%; in test [4], 91%; in test [5] it was 97%; in test [6], 93%. Further, the remaining activity at 10 µM in [7] was 97%; in test [8] it was 69%; in [9] it was 84%; in test [10], 87%; in [11], 99%; in test [12], 89%. In addition, the remaining activity at 10 µM in test [13] is 89%.
On to `O=c1[nH]c2ncc(-c3ccc(F)cc3)nc2n1C1CCCCC1` [Compound 12, 1-Cyclohexyl-6-(4-fluorophenyl)-1H-imidazo[4,5-b]pyrazin-2(3H)-one], for which the remaining activity at 10 µM in test [1] was 111%; in [2], 96%; in test [3] it was 94%; in test [4] it was 76%; in [5], 96%; in test [6], 93%. The remaining activity at 10 µM in test [7] was 62%; in test [8] it was 97%; in [9], 41%; in test [10], 86%; in test [11], 99%; in test [12] it was 88%. Further, the remaining activity at 10 µM in test [13] stood at 90%.
For the compound `C[C@H](c1ccccc1)n1c(=O)[nH]c2ncc(-c3ccccc3)nc21` [Compound 14, (R)-6-Phenyl-1-(1-phenylethyl)-1H-imidazo[4,5-b]pyrazin-2(3H)-one], the remaining activity at 10 µM in [1] amounted to 98%; in test [2] it was 71%; in test [3], 77%; in test [4] it was 77%; in test [5] it was 93%; in test [6] it was 76%. Further, the remaining activity at 10 µM turned out to be 87% in test [7]; 80% in [8]; 121% in test [9]; 88% in test [10]; 98% in test [11]; 75% in test [12]. Moreover, in [13], the remaining activity at 10 µM amounted to 83%.
